Assay results from US20110294732A1, “ERYTHROPOLETIN COMPLEMENTATION OR REPLACEMENT” (Universite De Strasbourg, priority 2007, published 2011).
Values joined by “and” are separate entries in the source; they are usually repeats but may differ in a detail not shown here. Identical values can stand only once.

Columns and labels:
[1] = tested on: whole blood; assay: In vitro P50 of whole blood after incubation with effector, human; format: cell-based; settings: 60 mM
Method: (§1) For the in vitro experiments, ITPP was dissolved in deionized water, pH was adjusted to pH 7 and, for incubation with whole blood, the osmolarity of the ITPP solutions was adjusted with glucose to 270-297 mOsM. Mixtures of hemoglobin and ITPP were measured with a HEMOX analyzer (PD Marketing, London) immediately after mixing. Red blood cells were incubated with ITPP for 1 hour at 37° C. Following incubation, the cells were washed 3 times with Bis-Tris-buffer (pH=7.0) and then used for P50 measurement.
(§2) ITPP was tested along with a cholesteroyl derivative (here designated as kf96) (both at 60 mM) as effectors for P50 shifts in whole blood of three species: human, mouse and pig. As usual, pHs for the compound-solutions were adjusted to ca. 7.0, osmolarities for both solutions were determined (325-373 mOsM) prior to treatment with the effectors, and whole blood volumes at 1:1 ratios were incubated.

[2] = Blood counts of mice after oral ingestion; format: in vivo
Source text: Blood from mice that ingested ITPP or IHP in water (for 4 days) or water only was collected on day 0, 7 and 11, in order to assess any differences in the blood count (and the amount of erythropoietin in the sera) of treated and control mice. […] The amount of blood from the other mice was not sufficient to determine the blood count.

[3] = Hematocrit after IP injection; format: in vivo; settings: 6 days after IP injection of 200 μl of a 60 mM solution; 40% on day 0
Method: It appears, based upon the preliminary data reported, that an inverse relationship exists between the number of RBCs and shift of their P50 value (see FIG. 1). The basal value of the RBC count is restored, once ΔP50 becomes 0%, 12 days after ingestion of ITPP. The hematocrit drops from 40% on day 0 (before ITPP administration) to 32%, 6 days after IP injection of 200 μl of a 60 mM ITPP solution.

[4] = Tolerability of ITPP injection in mice; format: in vivo, C57B1/6 mice
Method: Blood from C57B1/6 mice collected 2 hrs and 1 day after injection of 45, 60, 120 and 150 mM solutions of ITPP was measured for P50-shifts as reported. […] No animal died or seemed to suffer from the compound.

[5] = tested on: whole blood; assay: In vitro P50 of whole blood after incubation with effector, pig; format: cell-based; settings: 60 mM
Method: as §1, §2

[6] = target: murine hemoglobin (Mus musculus, UniProt P02088); assay: In vitro P50 shift of hemoglobin mixed with ITPP (HEMOX analyzer); format: biochemical
Method: Myo-ITPP was tested for its ability to induce a decrease of the O2-affinity of hemoglobin measured as a shift of the P50 value (P50 at 50% saturation of hemoglobin). The observed shifts to higher PO2 were up to 250% in murine hemoglobin and up to 40% in murine whole blood. This finding was particularly striking because the shifts occurred concomitantly in vivo with a decrease in the number of RBCs and hematocrit; such hemodilution is recognized as a positive indicator in many circumstances because it is diagnostic for downregulation of RBC production where the body's oxygen needs are being met efficiently. Additional support came from enhancement of the effort capacity of test animals by up to 100% following ITPP administration, which confirmed that oxygen was being delivered efficiently to the working muscle, and only to that muscle.
as §1

murine hemoglobin, sequence (P02088 2-147 limits assumed): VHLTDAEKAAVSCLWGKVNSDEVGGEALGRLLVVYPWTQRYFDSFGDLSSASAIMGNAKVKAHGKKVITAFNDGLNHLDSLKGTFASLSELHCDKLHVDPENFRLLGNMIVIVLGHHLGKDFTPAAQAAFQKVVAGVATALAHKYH
murine hemoglobin, sequence (P01942 2-142 partner limits assumed): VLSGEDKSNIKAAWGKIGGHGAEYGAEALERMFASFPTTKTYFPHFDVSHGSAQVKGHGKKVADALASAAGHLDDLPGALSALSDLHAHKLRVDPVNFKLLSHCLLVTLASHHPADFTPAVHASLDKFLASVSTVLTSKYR

O=P1(O)OC2C3OP(=O)(O)OP(=O)(O)OC3C3OP(=O)(O)OP(=O)(O)OC3C2OP(=O)(O)O1 (stereo not shown) [ITPP, inositol-tripyrophosphate]
P50 increase, % (ITPP) [1]: 39%
P50 mm Hg effector ITPP ([1]; control 22.1): 30.8 mm Hg
time until the basal value of the RBC count is restored ([2]; after ingestion, once ΔP50 becomes 0%): 12 days
number of RBCs ([2]; oral ingestion for 4 days): reduced significantly
number of white blood cells versus other groups ([2]; oral ingestion for 4 days): no major differences
RBC × 10^6/mm^3 (day 7) ([2]; single mouse, oral in water for 4 days, day 7, day 0 count 8.9-11.8): 6.60 10^6/mm^3 and 5.73 10^6/mm^3 and 6.35 10^6/mm^3 and 5.64 10^6/mm^3 and 5.45 10^6/mm^3 and 8.76 10^6/mm^3 and 7.70 10^6/mm^3 and 6.54 10^6/mm^3 (2×)
hematocrit [3]: 32%
tolerability ([4]; ip, concentrations up to 150 mM, no animal died): well tolerated
tolerability ([4]; mice, concentration of 120 mM): well tolerated
P50 increase, % (ITPP) ([5]; pig whole blood): 40%
P50 mm Hg effector ITPP ([5]; pig whole blood, control 32.2): 45.2 mm Hg
right shift in the Hb-O2 dissociation curve, strongest shift ([5]; summary over human, pig and mouse whole blood): up to 40%
shift of the P50 value to higher PO2 [6]: up to 250%
